# Read-outs that look alike come from different tables or passages of the source. Where a SMILES comes first, the peptide text is derived from it. Where no end group is shown, it is not given here. [ ]: non-standard residue; d: D form. Dip = N[C@H](C(=O)O)C(c1ccccc1)c1ccccc1; Phe(4-F) = N[C@@H](Cc1ccc(F)cc1)C(=O)O; 1Nal = N[C@@H](Cc1cccc2ccccc12)C(=O)O; Dmt = Cc1cc(O)cc(C)c1C[C@H](N)C(=O)O; Phg = N[C@H](C(=O)O)c1ccccc1; Nle = CCCC[C@H](N)C(=O)O; Dab = NCC[C@H](N)C(=O)O; Abu = CC[C@H](N)C(=O)O
# Experiments:
# human NOP receptor = target: T1, human NOP receptor (Homo sapiens, UniProt P41146); assay: Calcium mobilization, NOP receptor; format: cell-based; details: for NOP pEC50 (CL95%): CHO cells coexpressing human NOP and Gαqi5, Fluo-4 AM, 37 °C, mean of at least three experiments in duplicate, CL95% in brackets; for NOP/mu CR (concentration ratio): calcium mobilization, NOP versus mu; for Emax: mean ± SEM of at least three experiments in duplicate, SEM
# T1 construct: expressed in transfected cells; host or cells: CHO cells stably coexpressing the receptor and chimeric Gαqi5
# T1 sequence (P41146 whole entry): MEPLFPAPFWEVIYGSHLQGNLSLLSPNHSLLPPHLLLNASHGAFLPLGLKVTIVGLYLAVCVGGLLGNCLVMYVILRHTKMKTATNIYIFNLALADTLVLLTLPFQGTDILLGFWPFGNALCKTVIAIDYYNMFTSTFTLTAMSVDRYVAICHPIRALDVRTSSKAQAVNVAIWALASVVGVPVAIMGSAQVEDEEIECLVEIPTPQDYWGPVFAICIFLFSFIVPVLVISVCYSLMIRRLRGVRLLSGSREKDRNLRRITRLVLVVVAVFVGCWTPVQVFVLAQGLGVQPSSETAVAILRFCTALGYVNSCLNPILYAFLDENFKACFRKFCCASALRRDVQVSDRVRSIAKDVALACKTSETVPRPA
# Experimental: CHO cells stably coexpressing the human NOP or kappa or the mu receptor and the C-terminally modified Gαqi5 and CHO cells coexpressing the delta receptor and the GαqG66Di5 protein were generated and cultured as described previously.[45],[46] Cells were maintained in Dulbecco’s modified Eagle’s medium/nutrient mixture F-12 (DEMEM/F-12) supplemented with 10% FBS, 100 U/mL penicillin and 100 μg/mL streptomycin, 100 μg/mL hygromicin B, and 200 μg/mL G418 and cultured at 37 °C in 5% CO2 humidified air. Cells were seeded at a density of 50,000 cells/well into 96-well black, clear-bottom plates. The following day, the cells were incubated with Hanks’ balanced salt solution (HBSS) supplemented with 2.5 mM probenecid, 3 μM of the calcium-sensitive fluorescent dye Fluo-4 AM, and 0.01% pluronic acid for 30 min at 37 °C. After that time, the loading solution was aspirated and 100 μL/well of HBSS supplemented with 20 mM HEPES, 2.5 mM probenecid, and 500 μM brilliant black was added. Serial dilutions were carried out in HBSS/HEPES (20 mM) buffer (containing 0.02% BSA fraction V). After placing both plates (cell culture and master plate) into the fluorometric imaging plate reader FlexStation II (Molecular Devices, Sunnyvale, CA), fluorescence changes were measured. On-line additions were carried out in a volume of 50 μL/well. To facilitate drug diffusion into the wells, the present studies were performed at 37 °C. Maximum change in fluorescence, expressed as percent over the baseline fluorescence, was used to determine agonist response.
# The pharmacological terminology adopted in this paper is consistent with IUPHAR recommendations.[59] All data are expressed as the mean ± standard error of the mean (SEM) of at least three experiments performed in duplicate. […] Concentration-response curves to agonists were fitted to the classical four-parameter logistic nonlinear regression model:
# Effect = Baseline + (Emax – Baseline)/(1 + 10^(LogEC50 – Log[compound]) × Hillslope). Curve fitting was performed using PRISM 6.0 (GraphPad Software Inc., San Diego).
# human mu receptor = target: T2, human mu receptor (Homo sapiens, UniProt P35372); assay: Calcium mobilization, mu opioid receptor; format: cell-based; details: for mu pEC50 (CL95%): CHO cells coexpressing human mu receptor and Gαqi5, Fluo-4 AM, 37 °C, mean of at least three experiments in duplicate, CL95% in brackets; for pEC50_mu: molecular formula strings CSV, repeats calcium mobilization values of Tables 1-3; for activation at 10 µM / Emax: percent over the baseline fluorescence, SEM; for activation at 10 µM: mean ± SEM; for Emax: mean ± SEM of at least three experiments in duplicate
# T2 construct: expressed in transfected cells; host or cells: CHO cells stably coexpressing the receptor and chimeric Gαqi5
# T2 sequence (P35372 whole entry): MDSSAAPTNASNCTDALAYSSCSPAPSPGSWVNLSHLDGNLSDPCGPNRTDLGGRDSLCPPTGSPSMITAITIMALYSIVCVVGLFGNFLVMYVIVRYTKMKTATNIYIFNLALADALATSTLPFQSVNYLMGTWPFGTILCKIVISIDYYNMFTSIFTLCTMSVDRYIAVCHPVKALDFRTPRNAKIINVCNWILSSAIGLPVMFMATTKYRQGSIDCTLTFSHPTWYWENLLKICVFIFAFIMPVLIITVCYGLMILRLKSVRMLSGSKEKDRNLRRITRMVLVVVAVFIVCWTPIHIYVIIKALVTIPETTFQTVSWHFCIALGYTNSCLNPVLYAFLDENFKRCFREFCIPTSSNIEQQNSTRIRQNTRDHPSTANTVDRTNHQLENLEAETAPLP
# [1] = read-out: NOP Emax ± S.E.M., Table 1 series, maximum change in fluorescence as percent over the baseline fluorescence
# [2] = read-out: mu effect at 10 μM (crc incomplete), Table 1 series
# [3] = read-out: NOP Emax ± S.E.M., Table 3 series, percent over the baseline fluorescence
# [4] = read-out: mu Emax ± S.E.M., Table 3 series
# [5] = read-out: NOP Emax ± S.E.M., Table 2 series, percent over the baseline fluorescence
# [6] = read-out: mu effect at 10 μM (crc incomplete), Table 2 series
# [7] = read-out: mu Emax ± S.E.M., Table 2 series
Compound,"NOP pEC50 (CL95%) (human NOP receptor; Table 1 series, FlexStation II)",NOP/mu CR (concentration ratio) (human NOP receptor; Table 1 series),Emax (human NOP receptor; [1]) [%],mu pEC50 (CL95%) (human mu receptor; Table 1 series),pEC50_mu (human mu receptor),activation at 10 µM (human mu receptor; [2]) [%],Emax (human NOP receptor; [5]) [%],mu pEC50 (CL95%) (human mu receptor; Table 2 series),further results
"YGGFNGARKSARK-NH2 [Compound 4, [Tyr^1,Asn^5]N/OFQ(1-13)-NH2]",8.70 (8.26–9.11),0.002,327 ± 15,crc incomplete; 10 μM: 209 ± 29,crc incomplete,209 ± 29,–,–,–
"Cc1cc(O)cc(C)c1C[C@H](N)C(=O)NCC(=O)NCC(=O)N[C@@H](Cc1ccccc1)C(=O)N[C@@H](Cc1cccc2ccccc12)C(=O)NCC(=O)N[C@@H](C)C(=O)N[C@@H](CCCNC(=N)N)C(=O)N[C@@H](CCCCN)C(=O)N[C@@H](CO)C(=O)N[C@@H](C)C(=O)N[C@@H](CCCNC(=N)N)C(=O)N[C@@H](CCCCN)C(N)=O [Compound 33, [Dmt^1,1Nal^5]N/OFQ(1-13)-NH2] (H-[Dmt]GGF[1Nal]GARKSARK-NH2)",–,–,–,–,–,–,–,–,Emax (human NOP receptor; [3]): 286 ± 19%; Emax (human mu receptor; [4]): 349 ± 20%
"C[C@H](NC(=O)CNC(=O)[C@H](Cc1ccc(F)cc1)NC(=O)[C@H](Cc1ccccc1)NC(=O)CNC(=O)CNC(=O)[C@@H](N)Cc1ccc(O)cc1)C(=O)N[C@@H](CCCNC(=N)N)C(=O)N[C@@H](CCCCN)C(=O)N[C@@H](CO)C(=O)N[C@@H](C)C(=O)N[C@@H](CCCNC(=N)N)C(=O)N[C@@H](CCCCN)C(N)=O [Compound 21, [Tyr^1,(pF)Phe^5]N/OFQ(1-13)-NH2] (H-YGGF[Phe(4-F)]GARKSARK-NH2)",–,–,–,–,crc incomplete,–,311 ± 22,crc incomplete; 10 μM: 256 ± 55,activation at 10 µM (human mu receptor; [6]): 256 ± 55%
"YGGFKGARKSARK-NH2 [Compound 8, [Tyr^1,Lys^5]N/OFQ(1-13)-NH2]",7.26 (6.74–7.78),0.05,366 ± 6,crc incomplete; 10 μM: 113 ± 35,crc incomplete,113 ± 35,–,–,–
"C[C@H](NC(=O)CNC(=O)[C@@H](NC(=O)[C@H](Cc1ccccc1)NC(=O)CNC(=O)CNC(=O)[C@@H](N)Cc1ccc(O)cc1)C(c1ccccc1)c1ccccc1)C(=O)N[C@@H](CCCNC(=N)N)C(=O)N[C@@H](CCCCN)C(=O)N[C@@H](CO)C(=O)N[C@@H](C)C(=O)N[C@@H](CCCNC(=N)N)C(=O)N[C@@H](CCCCN)C(N)=O [Compound 23, [Tyr^1,Dip^5]N/OFQ(1-13)-NH2] (H-YGGF[Dip]GARKSARK-NH2)",–,–,–,–,–,–,240 ± 26,6.78 (6.28–7.27),NOP pEC50 (CL95%) (human NOP receptor; Table 2 series): 6.61 (6.13–7.09); NOP/mu CR (concentration ratio) (human NOP receptor; Table 2 series): 1.48; Emax (human mu receptor; [7]): 331 ± 32%
"CC[C@H](NC(=O)[C@H](Cc1ccccc1)NC(=O)CNC(=O)CNC(=O)[C@@H](N)Cc1ccc(O)cc1)C(=O)NCC(=O)N[C@@H](C)C(=O)N[C@@H](CCCNC(=N)N)C(=O)N[C@@H](CCCCN)C(=O)N[C@@H](CO)C(=O)N[C@@H](C)C(=O)N[C@@H](CCCNC(=N)N)C(=O)N[C@@H](CCCCN)C(N)=O [Compound 7, [Tyr^1,Abu^5]N/OFQ(1-13)-NH2] (H-YGGF[Abu]GARKSARK-NH2)",8.15 (7.61–8.69),0.007,366 ± 20,crc incomplete; 10 μM: 213 ± 37,crc incomplete,213 ± 37,–,–,–
"Cc1cc(O)cc(C)c1C[C@H](N)C(=O)NCC(=O)NCC(=O)N[C@@H](Cc1ccccc1)C(=O)N[C@H](C(=O)NCC(=O)N[C@@H](C)C(=O)N[C@@H](CCCNC(=N)N)C(=O)N[C@@H](CCCCN)C(=O)N[C@@H](CO)C(=O)N[C@@H](C)C(=O)N[C@@H](CCCNC(=N)N)C(=O)N[C@@H](CCCCN)C(N)=O)[C@@H](C)O [Compound 29, [Dmt^1]N/OFQ(1-13)-NH2, reference compound]",–,–,–,–,–,–,–,–,Emax (human NOP receptor; [3]): 294 ± 22%; Emax (human mu receptor; [4]): 311 ± 20%
"YGGFVGARKSARK-NH2 [Compound 5, [Tyr^1,Val^5]N/OFQ(1-13)-NH2]",8.70 (8.53–8.87),0.002,334 ± 19,crc incomplete; 10 μM: 254 ± 19,crc incomplete,254 ± 19,–,–,–
"CCCC[C@H](NC(=O)[C@H](Cc1ccccc1)NC(=O)CNC(=O)CNC(=O)[C@@H](N)Cc1ccc(O)cc1)C(=O)NCC(=O)N[C@@H](C)C(=O)N[C@@H](CCCNC(=N)N)C(=O)N[C@@H](CCCCN)C(=O)N[C@@H](CO)C(=O)N[C@@H](C)C(=O)N[C@@H](CCCNC(=N)N)C(=O)N[C@@H](CCCCN)C(N)=O [Compound 12, [Tyr^1,Nle^5]N/OFQ(1-13)-NH2] (H-YGGF[Nle]GARKSARK-NH2)",8.77 (8.45–9.09),0.01,375 ± 9,6.74 (6.15–7.33),–,–,–,–,"Emax (human mu receptor; read-out: mu Emax ± S.E.M, Table 1 series): 323 ± 4%"
"C[C@H](NC(=O)CNC(=O)[C@@H](NC(=O)[C@H](Cc1ccccc1)NC(=O)CNC(=O)CNC(=O)[C@@H](N)Cc1ccc(O)cc1)c1ccccc1)C(=O)N[C@@H](CCCNC(=N)N)C(=O)N[C@@H](CCCCN)C(=O)N[C@@H](CO)C(=O)N[C@@H](C)C(=O)N[C@@H](CCCNC(=N)N)C(=O)N[C@@H](CCCCN)C(N)=O [Compound 19, [Tyr^1,Phg^5]N/OFQ(1-13)-NH2] (H-YGGF[Phg]GARKSARK-NH2)",–,–,–,–,–,–,293 ± 31,6.81 (6.33–7.29),NOP pEC50 (CL95%) (human NOP receptor; Table 2 series): 7.57 (7.12–8.02); NOP/mu CR (concentration ratio) (human NOP receptor; Table 2 series): 0.17; Emax (human mu receptor; [7]): 287 ± 48%
"C[C@H](NC(=O)CNC(=O)[C@H](CCN)NC(=O)[C@H](Cc1ccccc1)NC(=O)CNC(=O)CNC(=O)[C@@H](N)Cc1ccc(O)cc1)C(=O)N[C@@H](CCCNC(=N)N)C(=O)N[C@@H](CCCCN)C(=O)N[C@@H](CO)C(=O)N[C@@H](C)C(=O)N[C@@H](CCCNC(=N)N)C(=O)N[C@@H](CCCCN)C(N)=O [Compound 10, [Tyr^1,Dab^5]N/OFQ(1-13)-NH2] (H-YGGF[Dab]GARKSARK-NH2)",6.43 (6.28–6.58),0.37,340 ± 22,crc incomplete; 10 μM: 41 ± 4,crc incomplete,41 ± 4,–,–,–
"COc1ccc(C[C@H](NC(=O)[C@H](Cc2ccccc2)NC(=O)CNC(=O)CNC(=O)[C@@H](N)Cc2ccc(O)cc2)C(=O)NCC(=O)N[C@@H](C)C(=O)N[C@@H](CCCNC(=N)N)C(=O)N[C@@H](CCCCN)C(=O)N[C@@H](CO)C(=O)N[C@@H](C)C(=O)N[C@@H](CCCNC(=N)N)C(=O)N[C@@H](CCCCN)C(N)=O)cc1 [Compound 20, [Tyr^1,p(OCH3)Phe^5]N/OFQ(1-13)-NH2] (H-YGGFY(Me)GARKSARK-NH2)",–,–,–,–,crc incomplete,–,246 ± 18,crc incomplete; 10 μM: 221 ± 49,activation at 10 µM (human mu receptor; [6]): 221 ± 49%
"YGGFFGARKSARK-NH2 [Compound 15, [Tyr^1,Phe^5]N/OFQ(1-13)-NH2]",–,–,–,–,–,–,242 ± 11,6.41 (5.85–6.97),NOP pEC50 (CL95%) (human NOP receptor; Table 2 series): 7.72 (7.56–7.87); NOP/mu CR (concentration ratio) (human NOP receptor; Table 2 series): 0.05; Emax (human mu receptor; [7]): 315 ± 32%
"Cc1cc(O)cc(C)c1C[C@H](NC(=O)[C@H](Cc1ccccc1)NC(=O)CNC(=O)CNC(=O)[C@@H](N)Cc1c(C)cc(O)cc1C)C(=O)NCC(=O)N[C@@H](C)C(=O)N[C@@H](CCCNC(=N)N)C(=O)N[C@@H](CCCCN)C(=O)N[C@@H](CO)C(=O)N[C@@H](C)C(=O)N[C@@H](CCCNC(=N)N)C(=O)N[C@@H](CCCCN)C(N)=O [Compound 35, [Dmt^1,5]N/OFQ(1-13)-NH2] (H-[Dmt]GGF[Dmt]GARKSARK-NH2)",–,–,–,–,–,–,–,–,Emax (human NOP receptor; [3]): 270 ± 25%; Emax (human mu receptor; [4]): 354 ± 16%

# Source: PMC8279409, “Novel Mixed NOP/Opioid Receptor Peptide Agonists” (Journal of Medicinal Chemistry, 2021)
